Data reported in US7026318B2 (Shionogi & Co., Ltd., priority 2000, dated 2006).
Like-named read-outs stand apart in the source and are kept apart here.

Tests used:
human type X sPLA2 [1] = target: T1, human type X sPLA2 (Homo sapiens, UniProt O15496); experiment: Human type X sPLA2-induced oleic acid release in human colon carcinoma HT-29 cells; type: cell-based; conditions: compound 10 μM, 100 nM human type X sPLA2, 30 min, percentage of the increase by type X sPLA2 (no treatment group = 100)
T1 construct: made in house; unpurified culture supernatant
T1 sequence (O15496 43-165): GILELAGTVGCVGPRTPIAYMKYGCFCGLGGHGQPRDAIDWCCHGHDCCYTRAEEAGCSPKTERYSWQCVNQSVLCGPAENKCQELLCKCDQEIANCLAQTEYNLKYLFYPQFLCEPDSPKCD
Protocol: Examination 15: Effects of sPLA2 Inhibitors on Human Type X sPLA2-Induced Oleic Acid Release in Human Colon Calcinoma Cell Lines, HT-29 Cells.
Human colon calcinoma cell lines, HT-29 cells (obtained from ATCC) were cultured in DMEM supplemented with 10% fetal calf serum. The cells were washed by phosphate-buffered saline (PBS), detached from culture plates by treatment with trypsin/EDTA solution and further washed by PBS. The resulting cells were resuspended in Hanks' buffered saline containing 0.1% bovine serum albumin (BSA) at a density of 12.5×10^6 cells/mL. Aliquots of the cell suspension (0.4 ml) were transferred into polypropylene tubes and test compounds dissolved in DMSO solution (final concentration; 10 μM) were added. After preincubation for 10 min at 37° C., 100 nM purified human type X sPLA2 enzyme (Hanasaki et al J. Biol. Chem. (1999) 274, 34203–34211) was added (final volume of 0.5 mL). After incubation for 30 min at 37° C., the reaction was stopped by the addition of 2 ml Dole's reagent (heptane:2-propanol:1M H2SO4=10:40:1, v/v/v).

human type X sPLA2 [2] = target: T1, human type X sPLA2; experiment: Type X sPLA2-induced PGE2 production in human colon carcinoma HT-29 cells; type: cell-based; conditions: compound 10 μM; TNF-α-treated HT-29 cells; 100 nM human type X sPLA2, 3 h; percentage of PGE2 produced by type X sPLA2 (no treatment group = 100)
Protocol: Examination 16: Effects of sPLA2 Inhibitors on Type X sPLA2-Induced PGE2 Production in Human Colon Carcinoma Cell Lines, HT-29 Cells.
HT-29 cells were seeded into 24-well plates at a density of 2.5×10^5 cells/well. After incubation for 24 h, the cells were washed three times with PBS and incubated with 30 ng/mL of recombinant human tumor necrosis factor-α (R&D Systems, Inc.) in DMEM medium supplemented with 10% fetal bovine serum for 18 h at 37° C. After washing with PBS, the cells were preincubated with or without test compounds (at a final concentration of 10 μM; dissolved in DMSO) in Hanks' buffered saline containing 0.1% BSA for 10 min at 37° C., and then stimulated with 100 nM purified human type X sPLA2 enzyme in a final volume of 0.5 mL. After incubation for 3 h at 37° C, the culture supernatant was collected following the centrifugation for the removal of floating cells, and its PGE2 content was quantified with an enzyme-immunoassay kit (Cayman Chemicals Co.). From each data, the value in the absence of type X sPLA2 was subtracted. The amount of PGE2 in the presence of each test compound was expressed as the percentage of the PGE2 content produced by the addition of type X sPLA2 enzyme.

[3] = target: human type I enzyme (sPLA2) (Homo sapiens, UniProt P04054); experiment: Inhibition test of human secretory phospholipase A2, chromogenic assay, type I enzyme; type: biochemical
human type X sPLA2 [4] = target: T1, human type X sPLA2; experiment: Type X sPLA2-induced fatty acid release from isolated human lipoproteins (LDL); type: biochemical; conditions: read-out: % of Inhibition (10 μM)
Protocol: Examination 17: Effects of sPLA2 Inhibitors on Type X sPLA2-Induced Fatty Acid Release From Isolated Human Lipoproteins.
LDL was isolated from human plasma by sequential ultracentrifugation method (Havel et al. J. Clin. Invest. 34,1345–1353 (1955)). LDL (0.5 mg/mL) was incubated with 10 nmol/L of human type X sPLA2 in the assay mixture containing 12.5 mmol/L Tris-HCl buffer (pH 8.0), 125 mg/L bovine serum albumin and 1 mmol/L calcium chloride for 4 hr at 37° C. Fatty acids released from lipoprotein were extracted by Dole's method (Dole et al. J. Biol. Chem. 235, 2595–2599 (1960)), labeled with 9-anthryldiazomethane according to a known method (Hanasaki et al., J. Biol. Chem. 274, 34203–34211 (1999)) and measured by detecting the fluorescence of labeled fatty acids using reverse-phase high performance chromatography (LiChroCART 125-4 Superspher 100 RP-18 column (Merck). For the inhibition assay of drugs, sPLA2 inhibitors (final concentration of 10 μM) were added at almost the same time as the addition of sPLA2 into the reaction solution. The results are presented in Table 10.

human type X sPLA2 [5] = target: T1, human type X sPLA2; experiment: Inhibition test of human secretory phospholipase A2, chromogenic assay, type X enzyme; type: biochemical
human type V sPLA2 = target: T2, human type V sPLA2 (Homo sapiens, UniProt P39877); experiment: Inhibition test of human secretory phospholipase A2, chromogenic assay, type V enzyme; type: biochemical
T2 construct: made in house; unpurified culture supernatant
T2 sequence (P39877 21-138): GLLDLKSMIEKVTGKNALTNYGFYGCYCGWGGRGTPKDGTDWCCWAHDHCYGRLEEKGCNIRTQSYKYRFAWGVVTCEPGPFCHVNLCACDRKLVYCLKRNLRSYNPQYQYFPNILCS

[6] = target: T3, human type II enzyme (sPLA2) (Homo sapiens, UniProt P14555); experiment: Inhibition test of human secretory phospholipase A2, chromogenic assay, type II enzyme; type: biochemical
T3 sequence (P14555 21-144): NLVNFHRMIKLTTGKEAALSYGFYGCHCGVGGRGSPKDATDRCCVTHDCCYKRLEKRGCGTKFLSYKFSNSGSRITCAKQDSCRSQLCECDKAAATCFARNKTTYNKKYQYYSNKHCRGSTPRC

[7] = recombinant human sPLA2 type I, chromogenic assay, 30 min, read-out: IC50 type I
[8] = compound 10 μM, human LDL 0.5 mg/mL, 10 nmol/L human type X sPLA2, 4 hr at 37° C.
[9] = human sPLA2 type V (CHO supernatant), chromogenic assay, 45 min, read-out: IC50 type V
[10] = human sPLA2 type II, chromogenic assay, 30 min, read-out: IC50 type II

Chain of human type I enzyme (sPLA2) (P04054 23-148): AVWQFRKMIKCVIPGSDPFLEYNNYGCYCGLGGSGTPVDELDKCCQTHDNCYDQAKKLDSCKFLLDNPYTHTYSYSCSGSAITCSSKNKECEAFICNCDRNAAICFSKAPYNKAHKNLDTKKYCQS

| IC50 (human type X sPLA2 [5]; human sPLA2 type X (CHO supernatant), chromogenic assay, 30 min, read-out: IC50 type X) [nM] | SMILES | melting point [°C] | Oleic acid release (human type X sPLA2 [1]) [%] | PGE2 production (human type X sPLA2 [2]) [%] | IC50 [3, 7] [nM] | inhibition at 10 µM (human type X sPLA2 [4]; [8]) [%] | IC50 (human type X sPLA2 [5]) [nM] | IC50 (human type V sPLA2; [9]) [nM] | IC50 [6, 10] [nM] | IC50 [3] [nM] | inhibition at 10 µM (human type X sPLA2 [4]) [%] | IC50 (human type V sPLA2) [nM] | IC50 [6] [nM] |
| --- | --- | --- | --- | --- | --- | --- | --- | --- | --- | --- | --- | --- | --- |
| – | Cc1cn2c(CCc3ccccc3)c(CC(C)C)c(C(=O)C(N)=O)c2c(OCC(=O)O)n1 [Compound I-4] | 202 to 203 | 13.8 ± 1.8 | 35.3 ± 40.2 | – | – | – | – | – | – | – | – | – |
| – | CC(C)Cc1c(C(=O)C(N)=O)c2c(OCC(=O)O)cccc2n1Cc1ccccc1 [Compound I-10] | – | −0.2 ± 5.7 | −12.7 ± 7.9 | > 700 | 91.3 | 13 | > 1000 | > 1000 | – | – | – | – |
| 37 | Cc1cn2c(Cc3ccccc3)c(CC(C)C)c(C(=O)C(N)=O)c2c(OCC(=O)NS(=O)(=O)c2ccccc2)n1 [Compound I-15] | 193 to 195 | – | – | > 700 | – | – | > 1000 | > 1000 | – | – | – | – |
| – | CC(C)Cc1c(C(=O)C(N)=O)c2c(OCC(=O)NS(=O)(=O)c3ccccc3)cccc2n1Cc1ccccc1 [Compound I-21] | – | 11.8 ± 0.6 | −6.6 ± 7.1 | – | – | 8 | – | – | – | – | – | – |
| – | CC(C)Cc1c(C(=O)C(N)=O)c2c(OCC(=O)NS(=O)(=O)c3ccccc3)cccc2n1Cc1ccc(F)cc1 [Compound I-22] | 172 to 173 | – | – | – | – | 8 | – | – | > 700 | 91.7 | > 1000 | > 1000 |
| – | CC(C)Cc1c(C(=O)C(N)=O)c2c(OCC(=O)NS(C)(=O)=O)cccc2n1Cc1ccccc1 [Compound I-23] | – | −2.0 ± 5.1 | 9.0 ± 28.1 | > 700 | – | 6 | > 1000 | > 1000 | – | – | – | – |
| – | Cc1cc(OCC(=O)NS(=O)(=O)c2ccccc2)c2c(C(=O)C(N)=O)c(CC(C)C)n(Cc3ccccc3)c2c1 [Compound I-24] | 145 to 147 | – | – | > 700 | – | 23 | > 1000 | > 1000 | – | – | – | – |
| – | Cc1cc(OCC(=O)NS(C)(=O)=O)c2c(C(=O)C(N)=O)c(CC(C)C)n(Cc3ccccc3)c2c1 [Compound I-25] | 211 to 214 | – | – | > 700 | – | 7 | > 1000 | > 1000 | – | – | – | – |
| – | CC(C)Cc1c(C(=O)C(N)=O)c2c(OCC(=O)NS(=O)(=O)C(F)(F)F)cccc2n1Cc1ccccc1 [Compound I-30] | – | – | – | – | 97.5 | – | – | – | – | – | – | – |
